One data set deals with Shigella dysenteriae. Put plainly: Antibacterial activity against Shigella dysenteriae assessed as inhibition of bacterial growth. In kind it is functional.
The test system of data set [1] is Mycoplasmoides pneumoniae. Description: Antibacterial activity against Mycoplasma pneumoniae assessed as inhibition of bacterial growth. The format is functional.
Data set [2] deals with Escherichia coli. Put plainly: Antibacterial activity against Escherichia coli assessed as inhibition of bacterial growth incubated for 24 hrs by microbroth two-fold dilution method. In kind it is functional. (In general: In broth dilution the organism is exposed to a series of concentrations in liquid medium.)
The next data set has as its system HEK-293T. Description: Cytotoxicity against human HEK293T cells assessed as cell viability incubated for 16 hrs by MTT assay. The format is toxicity, cell-based. In general terms: Tetrazolium assays rely on reduction of a dye to a coloured formazan, in cell work by metabolically active cells.
Data set [3] has as its system Streptococcus agalactiae. Description: Antibacterial activity against Streptococcus agalactiae assessed as bacterial growth by measuring optical density at 0.5 times MIC incubated for 12 hrs by real time growth curve analysis. The format is functional.
Data set [4] relates to Staphylococcus aureus. Description: Antibacterial activity against Staphylococcus aureus assessed as bacterial growth by measuring optical density incubated for 12 hrs by real time growth curve analysis. The format is functional.
The test system of data set [5] is Escherichia coli. Description: Antibacterial activity against Escherichia coli assessed as bacterial growth by measuring optical density at 0.5 times MIC incubated for 12 hrs by real time growth curve analysis. The format is functional.
The subject of the next data set is L02. Put plainly: Cytotoxicity against human L02 cells assessed as cell viability incubated for 16 hrs by MTT assay. In kind it is toxicity, cell-based. The following applies: l02, 16 h.
For data set [6], the system named is Staphylococcus aureus. Put plainly: Antibacterial activity against Staphylococcus aureus assessed as diameter of the inhibition circle at 1 mg/ml incubated for 48 hrs. The format is functional.
Data set [7] deals with Staphylococcus aureus. Put plainly: Antibacterial activity against Staphylococcus aureus assessed as inhibition of bacterial growth incubated for 24 hrs by microbroth two-fold dilution method. The format is functional.
Data set [8] concerns Staphylococcus aureus. Put plainly: Bactericidal activity against Staphylococcus aureus assessed as bacterial killing at 1 to 4 times MIC incubated up to 24 hrs by time kill assay. In kind it is functional.
Data set [9] has as its system Staphylococcus aureus. Put plainly: Antibacterial activity against Methicillin-resistant Staphylococcus aureus BNCC 337371 assessed as inhibition of bacterial growth incubated for 24 hrs by microbroth two-fold dilution method. The format is functional.
Data set [10] deals with Streptococcus agalactiae. Put plainly: Antibacterial activity against Streptococcus agalactiae assessed as bacterial growth by measuring optical density at 1 to 2 times MIC incubated for 12 hrs by real time growth curve analysis. In kind it is functional.
The subject of data set [11] is Streptococcus agalactiae. Put plainly: Antibacterial activity against Streptococcus agalactiae assessed as inhibition of bacterial growth incubated for 24 hrs by microbroth two-fold dilution method. In kind it is functional.
The test system of data set [12] is Escherichia coli. Description: Antibacterial activity against Escherichia coli assessed as bacterial growth by measuring optical density at 1 to 2 times MIC incubated for 12 hrs by real time growth curve analysis. In kind it is functional.
The subject of data set [13] is Staphylococcus aureus. Put plainly: Bactericidal activity against Staphylococcus aureus assessed as bacterial killing at 8 times MIC incubated up to 24 hrs by time kill assay. The format is functional, organism-based.
The test system of data set [14] is Staphylococcus aureus. Description: Bactericidal activity against Staphylococcus aureus assessed as bacterial killing at 16 times MIC incubated for 12 hrs by time kill assay. The format is functional.
Data set [15] has as its system Staphylococcus aureus. Description: Bactericidal activity against Staphylococcus aureus assessed as bacterial killing at 32 times MIC incubated for 12 hrs by time kill assay. In kind it is functional.
Data set [16] has as its system Staphylococcus aureus. Put plainly: Bactericidal activity against Staphylococcus aureus assessed as bacterial killing at 32 times MIC incubated for 9 hrs by time kill assay. In kind it is functional.

Values after ≈ are worked out from the molar mass of the structure shown. Active and inactive are the calls of the source. The calls are words filed in the database; no cut-off is given here.

One may read the MIC as the least concentration at which growth counts as inhibited. As to `C=C[C@]1(C)C[C@@H](OC(=O)CSC(C)(C)CNC(=O)[C@H](N)C(C)C)[C@]2(C)[C@H](C)CC[C@]3(CCC(=O)[C@H]32)[C@@H](C)[C@@H]1O` [VALNEMULIN], the MIC (in the data set with Shigella dysenteriae; in [1]) was 0.03 µg/mL (≈ 0.0531 µM) each time.
For `C=C[C@]1(C)C[C@@H](OC(=O)CSc2nc(NCCO)c3ccsc3n2)[C@]2(C)[C@H](C)CC[C@]3(CCC(=O)[C@H]32)[C@@H](C)[C@@H]1O`, the MIC in the data set on Escherichia coli [2] came to 0.0076 µg/mL (≈ 0.0129 µM); in the data set on Staphylococcus aureus [7] it was 0.0019 µg/mL (≈ 0.00323 µM); in the data set on Staphylococcus aureus [9] it was 0.0019 µg/mL (≈ 0.00323 µM); in the data set on Streptococcus agalactiae [11] it was 0.0019 µg/mL (≈ 0.00323 µM). The results for the Activity result in the data set with HEK-293T, with L02 and in the data set with Staphylococcus aureus [8] were “Non-Toxic”, “Non-Toxic” and 99.9%, respectively. Further, the OD was <0.3 in the data set on Streptococcus agalactiae [3]; <0.2 in the data set with Staphylococcus aureus [4]; <0.3 with Escherichia coli [5]; 0.1 with Streptococcus agalactiae [10]; 0.1 with Escherichia coli [12]. Moreover, the inhibition zone diameter with Staphylococcus aureus [6] stood at 33 mm.
As to `C=C[C@]1(C)C[C@@H](OC(=O)CSc2nc(NCCO)c3ccccc3n2)[C@]2(C)[C@H](C)CC[C@]3(CCC(=O)[C@H]32)[C@@H](C)[C@@H]1O`, the MIC in the data set with Escherichia coli [2] was 0.03 µg/mL (≈ 0.0516 µM); in the data set on Staphylococcus aureus [7], 0.0153 µg/mL (≈ 0.0263 µM); in the data set with Staphylococcus aureus [9], 0.0305 µg/mL (≈ 0.0524 µM); with Streptococcus agalactiae [11], 0.0153 µg/mL (≈ 0.0263 µM). The OD in the data set with Streptococcus agalactiae [3] is on record as <0.3; in the data set with Staphylococcus aureus [4] it was <0.3; with Escherichia coli [5] it was <0.3; in the data set with Streptococcus agalactiae [10] it was 0.1; in the data set on Escherichia coli [12] it was 0.1. In addition, in the data set on Staphylococcus aureus [6], the inhibition zone diameter is 30.5 mm.
As for `C=C[C@]1(C)C[C@@H](OC(=O)CSc2nc(N(C)CCN(C)C)c3ccsc3n2)[C@]2(C)[C@H](C)CC[C@]3(CCC(=O)[C@H]32)[C@@H](C)[C@@H]1O`, the MIC is 0.244 µg/mL (≈ 0.388 µM) in the data set with Escherichia coli [2], 0.0019 µg/mL (≈ 0.00302 µM) in the data set on Staphylococcus aureus [7], 0.244 µg/mL (≈ 0.388 µM) in the data set on Staphylococcus aureus [9] and 0.244 µg/mL (≈ 0.388 µM) with Streptococcus agalactiae [11]. Further, the OD with Streptococcus agalactiae [3] is reported as <0.3; in the data set with Escherichia coli [5], <0.3; with Streptococcus agalactiae [10] it was 0.1; in the data set with Escherichia coli [12] it was 0.1. Further, the inhibition zone diameter in the data set on Staphylococcus aureus [6] came to 29.4 mm.
In the case of `C=C[C@]1(C)C[C@@H](OC(=O)CSc2nc(N3CCNCC3)c3ccsc3n2)[C@]2(C)[C@H](C)CC[C@]3(CCC(=O)[C@H]32)[C@@H](C)[C@@H]1O`, the MIC turned out to be 0.976 µg/mL (≈ 1.59 µM) in the data set with Escherichia coli [2], 0.0076 µg/mL (≈ 0.0124 µM) in the data set on Staphylococcus aureus [7], 0.122 µg/mL (≈ 0.199 µM) in the data set on Staphylococcus aureus [9] and 0.0153 µg/mL (≈ 0.025 µM) in the data set on Streptococcus agalactiae [11]. Moreover, the OD in the data set on Streptococcus agalactiae [3] is given as <0.3; with Staphylococcus aureus [4], <0.3; in the data set on Escherichia coli [5], <0.3; in the data set with Streptococcus agalactiae [10], 0.1; with Escherichia coli [12], 0.1. In addition, the inhibition zone diameter in the data set on Staphylococcus aureus [6] stood at 26.8 mm.
`C=C[C@]1(C)C[C@@H](OC(=O)CSCCN(CC)CC)[C@]2(C)[C@H](C)CC[C@]3(CCC(=O)[C@H]32)[C@@H](C)[C@@H]1O` [TIAMULIN]: the MIC in the data set on Escherichia coli [2] worked out at 15.6 µg/mL (≈ 31.6 µM); in the data set on Staphylococcus aureus [7] it was 0.488 µg/mL (≈ 0.989 µM); in the data set on Staphylococcus aureus [9] it was 0.488 µg/mL (≈ 0.989 µM); with Streptococcus agalactiae [11], 0.122 µg/mL (≈ 0.247 µM). In addition, in the data set on Staphylococcus aureus [6], the inhibition zone diameter was 25.2 mm. Further, the outcome in the data set on Staphylococcus aureus [13] was Active.
Take `C=C[C@]1(C)C[C@@H](OC(=O)CSc2nc(N3CCN(CC)CC3)c3ccsc3n2)[C@]2(C)[C@H](C)CC[C@]3(CCC(=O)[C@H]32)[C@@H](C)[C@@H]1O`: the MIC stood at 0.122 µg/mL (≈ 0.191 µM) in the data set with Escherichia coli [2], 0.0019 µg/mL (≈ 0.00296 µM) with Staphylococcus aureus [7], 0.0076 µg/mL (≈ 0.0119 µM) with Staphylococcus aureus [9] and 0.122 µg/mL (≈ 0.191 µM) in the data set on Streptococcus agalactiae [11]. Besides, the Activity result is listed as “Non-Toxic” in the data set on HEK-293T; “Non-Toxic” in the data set on L02; 99.9% in the data set with Staphylococcus aureus [14]; 99.9% with Staphylococcus aureus [15]; 99.9% in the data set with Staphylococcus aureus [16]; 99.9% with Staphylococcus aureus [8]. Also, the OD in the data set with Streptococcus agalactiae [3] is listed as <0.3; in the data set with Staphylococcus aureus [4], <0.2; in the data set with Escherichia coli [5] it was <0.3; in the data set with Streptococcus agalactiae [10] it was 0.1; in the data set on Escherichia coli [12], 0.1. The inhibition zone diameter in the data set on Staphylococcus aureus [6] stood at 33.5 mm.
Regarding `C=C[C@]1(C)C[C@@H](OC(=O)CS[C@@H]2C[C@H]3CC[C@@H](C2)N3C)[C@]2(C)[C@H](C)CC[C@]3(CCC(=O)[C@H]32)[C@@H](C)[C@@H]1O` [RETAPAMULIN], the MIC worked out at 1.95 µg/mL (≈ 3.77 µM) with Escherichia coli [2], 0.122 µg/mL (≈ 0.236 µM) in the data set on Staphylococcus aureus [7], 0.0621 µg/mL (≈ 0.12 µM) in the data set on Staphylococcus aureus [9] and 0.0305 µg/mL (≈ 0.0589 µM) in the data set on Streptococcus agalactiae [11]. The inhibition zone diameter in the data set on Staphylococcus aureus [6] came to 30.4 mm.
